Measurements published in article PMC8704315, “Lichen-Derived Compounds and Extracts as Biologically Active Substances with Anticancer and Neuroprotective Properties” (Pharmaceuticals, 2021).

Target: BChE (Homo sapiens, UniProt P06276)
Assay type: biochemical
Details: sample 142.9 μg/mL in the reaction mixture
Method: Ellman’s colorimetric method was used with modifications described previously. Tested sample (10 μL) at concentration 5 mg/mL was mixed with 20 μL of AChE (or BChE) solution (0.28 U/mL) and completed after 5 min with 35 μL of ATChI (or BTCh) (1.5 mmol/L), 175 μL of 0.3 mmol/L DTNB (containing 10 mmol/L NaCl and 2 mmol/L MgCl2) and 110 μL with Tris-HCl buffer (50 mmol/L, pH 8.0). Samples containing 10 μL of Tris-HCl buffer instead of the studied sample were run in the same way (“blank” samples). The increase in the absorbance due to the spontaneous hydrolysis of the substrate was monitored using “blank” samples containing ATCh (or BTCh) and DTNB completed to 350 μL with Tris-HCl buffer. All samples were incubated at 22 °C (30 min; incubation time was determined after optimization experiments, details not shown), and the absorbance was measured (405 nm, 96-well microplate reader, Tecan Sunrise, Grödig, Austria). The “false-positive” effect of studied compounds was measured according to Rhee et al. with minor modifications, as described previously: after mixing of the substrate with the enzyme and buffer, the “false-positive” sample was left for incubation. Then, a studied sample and DTNB were added, followed by an immediate measurement of the absorbance.
Reference cholinesterase inhibitors were used for the calculations of results (eserine, neostigmine, magniflorine, rivastigmine and donepezil). For this purpose, for each compound, 16 dilutions in pure DMSO were prepared (2.57–41.14 μg/mL). These solutions (10 μL) were tested as described above and calibration curves were produced.
Each sample was analyzed in at least eight repeats, and all solutions used in a set of analyses were prepared in the same buffer. For calculations, the background of the sample (10 μL mixed with 340 μL of Tris buffer) was measured at 405 nm and subtracted during calculations. Then, the absorbance of the test sample was subtracted from the absorbance of the “blank” sample.

BChE, sequence (P06276 29-602, species assumed): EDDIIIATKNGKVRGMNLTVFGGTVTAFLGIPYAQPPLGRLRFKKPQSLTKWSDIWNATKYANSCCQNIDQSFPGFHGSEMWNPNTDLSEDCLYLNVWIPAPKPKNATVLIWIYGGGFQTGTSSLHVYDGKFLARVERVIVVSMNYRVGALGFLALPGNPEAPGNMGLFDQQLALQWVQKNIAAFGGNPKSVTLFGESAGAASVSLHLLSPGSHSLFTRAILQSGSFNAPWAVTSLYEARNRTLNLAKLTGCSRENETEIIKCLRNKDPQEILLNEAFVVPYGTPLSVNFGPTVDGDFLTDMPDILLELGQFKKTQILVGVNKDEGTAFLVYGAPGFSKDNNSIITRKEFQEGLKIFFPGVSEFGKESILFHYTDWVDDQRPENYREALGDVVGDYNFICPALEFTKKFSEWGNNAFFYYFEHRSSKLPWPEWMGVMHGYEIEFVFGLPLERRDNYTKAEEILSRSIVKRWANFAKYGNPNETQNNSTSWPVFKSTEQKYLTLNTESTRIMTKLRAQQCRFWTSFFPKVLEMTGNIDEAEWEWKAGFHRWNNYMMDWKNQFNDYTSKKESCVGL

Structure (SMILES): Cc1cc(O)c(C=O)c2c1C(=O)Oc1c(CO)c(O)c3c(c1O2)C(O)OC3=O (stereo not shown) [Salazinic acid, salazinic acid]
- Equivalent Reference Concentration, Donepezil, BChE: 7.9 ± 0.3 µg/mL
- Equivalent Reference Concentration, Eserine, BChE: 9.0 ± 0.1 µg/mL
- Equivalent Reference Concentration, Magniflorine, BChE: 43.2 ± 0.2 µg/mL
- Equivalent Reference Concentration, Neostygmine, BChE: 13.6 ± 0.1 µg/mL
- Equivalent Reference Concentration, Rivastigmine, BChE: 70.9 ± 0.3 µg/mL

Structure (SMILES): COc1cc(C)c(C(=O)Oc2cc(C)c(C(=O)O)c(O)c2)c(O)c1 [Evernic acid, evernic acid]
- Equivalent Reference Concentration, Donepezil, BChE: 9.5 ± 0.0 µg/mL
- Equivalent Reference Concentration, Eserine, BChE: 10.9 ± 0.1 µg/mL
- Equivalent Reference Concentration, Magniflorine, BChE: 52.3 ± 0.1 µg/mL
- Equivalent Reference Concentration, Neostygmine, BChE: 16.5 ± 0.2 µg/mL
- Equivalent Reference Concentration, Rivastigmine, BChE: 85.9 ± 0.1 µg/mL
